Laboratory results taken from PMC9848300, “Discovery of novel enasidenib analogues targeting inhibition of mutant isocitrate dehydrogenase 2 as antileukaemic agents” (Journal of Enzyme Inhibition and Medicinal Chemistry, 2023).
Like-named read-outs stand apart in the source and are kept apart here.

Key:
Type in all cases: cell-based
[1] = tested on: SF-539; test: NCI 60 antitumor screening (single dose / five doses); details: Homo sapiens
[2] = tested on: NCI-H460; test: NCI 60 antitumor screening (single dose); details: Homo sapiens; NCI-H460 (non-small cell lung cancer), single dose 10 μM; read-out: Growth inhibition percentage (GI %)
Procedure: (§1) Initially, the anticancer effects of target compounds have been assessed at a single (10 μM) dose. The obtained data have been reported as mean-graph of the percent growth (G%) of the treated cancer cells. Percentage growth inhibition (GI%) is calculated (100 − G%) and pronounced in Table 1. […] Target compounds in series (III) with manipulated linkers disclosed lower potency. Superiorly, eight s-triazine derivatives from the three series (6a, 6c, 6d, 7a, 7g, 7i, 7l, and 8b) have shown potent broad-spectrum anticancer activity against most the examined cell lines, whereas most of the remaining triazine derivatives, 20 derivatives, have exerted selective anti-proliferative actions towards certain cancer cell lines (Supplementary).
(§2) The antitumor screening was performed for 60 human cancer cell lines under the protocol of NCI (www.dtp.nci.nih.gov), the Drug Evaluation Branch, Bethesda, MD. All submitted compounds were nominated based on the degree of structural diversity and computer modelling techniques for evaluation of their anticancer activity. The screening process for antineoplastic activity passes through two successive levels, starting with the assessment of target compounds at a single dose of 10 μM against 60 cancer cell lines on nine types of human tumours. These experiments were done on a triplicate following. The output from the single‐dose screening was covered as a mean graph, and then, analysed by the COMPARE program. Finally, the compounds which disclosed subpanel cancer cell growth (G %) equal to or less than 10% in at least eight cancer cell lines get to pass the assessment against the 60 cell lines at five doses (0.01–100 μM). By using GraphPad Prism version 9.0 (Graphpad Software Inc., La Jolla, CA), GI50, TGI, as well as LC50 dose‐response parameters were computed and presented for each compound (Supplementary information)[55–57].

[3] = tested on: PC-3; test: NCI 60 antitumor screening (single dose); details: Homo sapiens
Procedure: as §1, §2

[4] = tested on: NCI-H226; test: NCI 60 antitumor screening (single dose); details: Homo sapiens; NCI-H226 (non-small cell lung cancer), single dose 10 μM; read-out: Growth inhibition percentage (GI %)
Procedure: as §1, §2

[5] = tested on: MCF7; test: NCI 60 antitumor screening (single dose); details: Homo sapiens
Procedure: as §1, §2

[6] = tested on: OVCAR-5; test: NCI 60 antitumor screening (single dose); details: Homo sapiens
Procedure: as §1, §2

[7] = tested on: HOP-62; test: NCI 60 antitumor screening (single dose); details: Homo sapiens; HOP-62 (non-small cell lung cancer), single dose 10 μM; read-out: Growth inhibition percentage (GI %)
Procedure: as §1, §2

[8] = tested on: SNB-19; test: NCI 60 antitumor screening (single dose); details: Homo sapiens; SNB-19 (CNS cancer), single dose 10 μM; read-out: Growth inhibition percentage (GI %)
Procedure: as §1, §2

[9] = tested on: M14; test: NCI 60 antitumor screening (single dose); details: Homo sapiens
Procedure: as §1, §2

[10] = tested on: CAKI-1; test: NCI 60 antitumor screening (single dose); details: Homo sapiens
Procedure: as §1, §2

[11] = tested on: U251; test: NCI 60 antitumor screening (single dose); details: Homo sapiens, U-251; U251 (CNS cancer), single dose 10 μM; read-out: Growth inhibition percentage (GI %)
Procedure: as §1, §2

[12] = tested on: TK-10; test: NCI 60 antitumor screening (single dose); details: Homo sapiens
Procedure: as §1, §2

[13] = tested on: HS 578T; test: NCI 60 antitumor screening (single dose); details: Homo sapiens, read-out: Growth inhibition percentage (GI %)
Procedure: as §1, §2

[14] = tested on: SF-268; test: NCI 60 antitumor screening (single dose); details: Homo sapiens; SF-268 (CNS cancer), single dose 10 μM; read-out: Growth inhibition percentage (GI %)
Procedure: as §1, §2

[15] = tested on: NCI-H322M; test: NCI 60 antitumor screening (single dose); details: Homo sapiens; NCI-H322M (non-small cell lung cancer), single dose 10 μM; read-out: Growth inhibition percentage (GI %)
Procedure: as §1, §2

[16] = tested on: OVCAR-3; test: NCI 60 antitumor screening (single dose); details: Homo sapiens
Procedure: as §1, §2

[17] = tested on: OVCAR-8; test: NCI 60 antitumor screening (single dose); details: Homo sapiens
Procedure: as §1, §2

[18] = tested on: A549/ATCC; test: NCI 60 antitumor screening (single dose); details: Homo sapiens; A549/ATCC (non-small cell lung cancer), single dose 10 μM; read-out: Growth inhibition percentage (GI %)
Procedure: as §1, §2

[19] = tested on: HCC-2998; test: NCI 60 antitumor screening (single dose); details: Homo sapiens; HCC-2998 (colon cancer), single dose 10 μM; read-out: Growth inhibition percentage (GI %)
Procedure: as §1, §2

[20] = tested on: NCI-H522; test: NCI 60 antitumor screening (single dose); details: Homo sapiens; NCI-H522 (non-small cell lung cancer), single dose 10 μM; read-out: Growth inhibition percentage (GI %)
Procedure: as §1, §2

[21] = tested on: KM 12; test: NCI 60 antitumor screening (single dose); details: Homo sapiens, KM12; KM 12 (colon cancer), single dose 10 μM; read-out: Growth inhibition percentage (GI %)
Procedure: as §1, §2

[22] = tested on: UACC-257; test: NCI 60 antitumor screening (single dose / five doses); details: Homo sapiens
[23] = tested on: K-562; test: as above; details: Homo sapiens
[24] = tested on: MALME-3M; test: as above; details: Homo sapiens, read-out: Growth inhibition percentage (GI %)
[25] = tested on: ACHN; test: as above; details: Homo sapiens, read-out: Growth inhibition percentage (GI %)
[26] = tested on: RPMI-8226; test: as above; details: Homo sapiens
[27] = tested on: CCRF-CEM; test: as above; details: Homo sapiens, read-out: Growth inhibition percentage (GI %)
[28] = SF-539, read-out: Growth inhibition percentage (GI %)
[29] = PC-3, read-out: Growth inhibition percentage (GI %)
[30] = MCF7, read-out: Growth inhibition percentage (GI %)
[31] = OVCAR-5, read-out: Growth inhibition percentage (GI %)
[32] = M14, read-out: Growth inhibition percentage (GI %)
[33] = CAKI-1, read-out: Growth inhibition percentage (GI %)
[34] = TK-10, read-out: Growth inhibition percentage (GI %)
[35] = OVCAR-3, read-out: Growth inhibition percentage (GI %)
[36] = OVCAR-8, read-out: Growth inhibition percentage (GI %)
[37] = UACC-257, read-out: Growth inhibition percentage (GI %)
[38] = K562, read-out: Growth inhibition percentage (GI %)
[39] = RPMI-8226, read-out: Growth inhibition percentage (GI %)
[40] = SF-539 (CNS cancer), single dose 10 μM, read-out: Growth inhibition percentage (GI %)
[41] = PC-3 (prostate cancer), single dose 10 μM, read-out: Growth inhibition percentage (GI %)
[42] = MCF7 (breast cancer), single dose 10 μM, read-out: Growth inhibition percentage (GI %)
[43] = OVCAR-5 (ovarian cancer), single dose 10 μM, read-out: Growth inhibition percentage (GI %)
[44] = M14 (melanoma), single dose 10 μM, read-out: Growth inhibition percentage (GI %)
[45] = CAKI-1 (renal cancer), single dose 10 μM, read-out: Growth inhibition percentage (GI %)
[46] = TK-10 (renal cancer), single dose 10 μM, read-out: Growth inhibition percentage (GI %)
[47] = HS 578T (breast cancer), single dose 10 μM
[48] = OVCAR-3 (ovarian cancer), single dose 10 μM, read-out: Growth inhibition percentage (GI %)
[49] = OVCAR-8 (ovarian cancer), single dose 10 μM, read-out: Growth inhibition percentage (GI %)
[50] = UACC-257 (melanoma), single dose 10 μM, read-out: Growth inhibition percentage (GI %)
[51] = K562, K-562 (leukaemia), single dose 10 μM, read-out: Growth inhibition percentage (GI %)
[52] = MALME-3M (melanoma), single dose 10 μM
[53] = ACHN (renal cancer), single dose 10 μM
[54] = RPMI-8226 (leukaemia), single dose 10 μM, read-out: Growth inhibition percentage (GI %)
[55] = CCRF-CEM (leukaemia), single dose 10 μM

SMILES | inhibition at 10 µM [1, 28] | inhibition at 10 µM [2] | inhibition at 10 µM [3, 29] | inhibition at 10 µM [4] | inhibition at 10 µM [5, 30] | inhibition at 10 µM [6, 31] | inhibition at 10 µM [7] | inhibition at 10 µM [8] | inhibition at 10 µM [9, 32] | inhibition at 10 µM [10, 33] | inhibition at 10 µM [11] | inhibition at 10 µM [12, 34] | inhibition at 10 µM ([13]; Hs-578T) | inhibition at 10 µM [14] | inhibition at 10 µM [15] | inhibition at 10 µM [16, 35] | inhibition at 10 µM [18] | inhibition at 10 µM [19] | inhibition at 10 µM [20] | inhibition at 10 µM [21] | other results
O=[N+]([O-])c1cccc(/C=N/Nc2nc(N/N=C/c3cccc([N+](=O)[O-])c3)nc(N3CCOCC3)n2)c1 [compound 6f, 2-(Morpholin-4-yl)-4,6-bis[(E)-2-[(3-nitrophenyl)methylidene]hydrazin-1-yl]-1,3,5-triazine] | 6.2% | 17% | 37.9% | 26.4% | 34.7% | -17% | 26.4% | 4.49% | 14% | 29.5% | 17.2% | -45.7% | 16.7% | 6.36% | 5.64% | 19% | 28.6% | -2.57% | 34.8% | 15% | inhibition at 10 µM [17, 36]: 39.9%; inhibition at 10 µM [22, 37]: 9.17%; inhibition at 10 µM [23, 38]: 63.3%; inhibition at 10 µM ([24]; Malme-3M): 6.12%; inhibition at 10 µM ([25]; ACHN): 30.2%; inhibition at 10 µM [26, 39]: 66.4%; inhibition at 10 µM ([27]; CCRF-CEM): 58.4%
CN(C)c1ccc(/C=N/Nc2nc(N/N=C/c3ccc(N(C)C)cc3)nc(N3CCOCC3)n2)cc1 [compound 6g, 4-[(1e)-(2-{4-[(E)-2-{[4-(dimethylamino)phenyl]methylidene}hydrazin-1-yl]-6-(morpholin-4-yl)-1,3,5-triazin-2-yl}hydrazin-1-ylidene)methyl]-N,N-dimethylaniline] | – | 83.3% | – | 6.53% | – | – | -5.52% | 8.7% | – | – | 55.7% | – | – | 2.19% | -0.33% | – | 25.1% | -2.9% | 1.08% | -3.9% | inhibition at 10 µM [1, 40]: 3.33%; inhibition at 10 µM [3, 41]: 12.3%; inhibition at 10 µM [5, 42]: 45.1%; inhibition at 10 µM [6, 43]: -10.4%; inhibition at 10 µM [9, 44]: -2.62%; inhibition at 10 µM [10, 45]: 4.03%; inhibition at 10 µM [12, 46]: -10.2%; inhibition at 10 µM [13, 47]: 2.43%; inhibition at 10 µM [16, 48]: -9.22%; inhibition at 10 µM [17, 49]: 1.04%; inhibition at 10 µM [22, 50]: -2.69%; inhibition at 10 µM [23, 51]: 93.7%; inhibition at 10 µM [24, 52]: -14.2%; inhibition at 10 µM [25, 53]: -4.23%; inhibition at 10 µM [26, 54]: 65%; inhibition at 10 µM [27, 55]: 86.7%
Clc1cccc(/C=N/Nc2nc(N/N=C/c3cccc(Cl)c3Cl)nc(N3CCOCC3)n2)c1Cl [compound 6h, 2,4-Bis[(E)-2-[(2,3-Dichlorophenyl)methylidene]hydrazin-1-yl]-6-(morpholin-4-yl)-1,3,5-triazine] | – | -0.07% | – | 14.6% | – | – | -3.7% | 12.3% | – | – | 21% | – | – | 13% | 11.9% | – | 3.4% | -6.13% | 21.4% | 8.19% | inhibition at 10 µM [1, 40]: 44.2%; inhibition at 10 µM [3, 41]: 14.5%; inhibition at 10 µM [5, 42]: 25.1%; inhibition at 10 µM [6, 43]: -10.2%; inhibition at 10 µM [9, 44]: -4.08%; inhibition at 10 µM [10, 45]: -1.35%; inhibition at 10 µM [12, 46]: -29.2%; inhibition at 10 µM [13, 47]: -8.95%; inhibition at 10 µM [16, 48]: -2.72%; inhibition at 10 µM [17, 49]: 44.6%; inhibition at 10 µM [22, 50]: -9.57%; inhibition at 10 µM [23, 51]: 38.6%; inhibition at 10 µM [24, 52]: 2.72%; inhibition at 10 µM [25, 53]: -7.98%; inhibition at 10 µM [26, 54]: 12.1%; inhibition at 10 µM [27, 55]: 16.5%
O=[N+]([O-])c1cc(/C=N/Nc2nc(N/N=C/c3ccc(Cl)c([N+](=O)[O-])c3)nc(N3CCOCC3)n2)ccc1Cl [compound 6i, 2,4-Bis[(E)-2-[(4-Chloro-3-nitrophenyl)methylidene]hydrazin-1-yl]-6-(morpholin-4-yl)-1,3,5-triazine] | 6.38% | -1.58% | -0.63% | -3.53% | 56.7% | -9.28% | -5.02% | 0.85% | -11.5% | -3.02% | -5.95% | -24.4% | -5.27% | 0.39% | 2.28% | -10% | -8.71% | -5.78% | 0.32% | 6.79% | inhibition at 10 µM [17, 36]: 3.42%; inhibition at 10 µM [22, 37]: -2.78%; inhibition at 10 µM [23, 38]: 31.4%; inhibition at 10 µM ([24]; Malme-3M): -29.9%; inhibition at 10 µM ([25]; ACHN): -2.76%; inhibition at 10 µM [26, 39]: 42.8%; inhibition at 10 µM ([27]; CCRF-CEM): 12.2%
